Experimental data: the NIST ThermoML archive (doi:10.1016/j.fluid.2017.09.007)
± gives the expanded uncertainty stated by the source.

Tests used:
[1] = Molar enthalpy of transition or fusion; details: Crystal; DSC
[2] = Crystal; DTA

Molar enthalpy of transition or fusion [1]: 9.15 ± 0.311 kcal/mol
Normal melting temperature [2]: 221.60 ± 1.1 °C
Structure (SMILES): C[C@]12CCC(=O)C=C1CC[C@@H]1[C@@H]2[C@@H](O)C[C@@]2(C)[C@H]1CC[C@]2(O)C(=O)CO [11β,17α,21-trihydroxypregn-4-ene-3,20-dione]
